System: 556581-035-R-J1-PDC complex spheroid growth
Assay: Anticancer human tumor 556581-035-R-J1-PDC patient-derived ovarian carcinoma cell line growth inhibition [AhR]
Conditions: for IC50: curve of first compound; for viability, T/C: stronger effect = lower value
From the text: Multicellular complex tumor spheroid response to aryl hydrocarbon receptor antagonists in combination with a variety of drugs and investigational agents in selected tumor cell lines
The current study was undertaken to assess response to aryl hydrocarbon receptor antagonists in combination with standard-of-care drugs and investigational agents in solid tumor complex spheroid models. Complex spheroids include a stromal component modeled by human endothelial cells (HUVEC) and fibroblasts modeled by human mesenchymal stem cells (MSCs). The concentration ranges selected for each drug and investigational agent were based upon clinically achievable concentrations if the clinical Cmax of the agent was known.
Compounds. The drugs and investigational agents: BAY 2416964 (NSC825713), GNF351 (NSC835774), CH-223191 (NSC835775), CPI-455 (NSC825282), aza-TdCyd (NSC777586), decitabine (NSC127716), belinostat (NSC758774), entinostat (NSC756642), pevonedistat (NSC761192), tazemetostat (NSC777109), talazoparib (NSC765396), olaparib (NSC753686), selinexor (NSC780203), nedisertib (M3814, NSC802822), bortezomib (NSC756655), venetoclax (NSC766270), doxorubicin (NSC123127), elimusertib (BAY189344, NSC800525), ceralasertib (AZD6738, NSC777638), TAK-243 (NSC785004), alisertib (NSC759677), etoposide (NSC141540), topotecan (NSC609699), eribulin (NSC707389), gemcitabine (NSC613327), carboplatin (NSC241240), cisplatin (NSC119875), and SN-38 (NSC673596) were obtained from the National Cancer Institute (NCI) Developmental Therapeutics Program Chemical Repository (32). The FDA-approved anticancer drug set is available from the Developmental Therapeutics Program at https://dtp.cancer.gov/organization/dscb/obtaining/available plates.htm. […] The stock solutions were prepared in dimethyl sulfoxide (DMSO, Sigma-Aldrich, St. Louis, MO, cat. D2650), except for the platinum compounds which were prepared in saline (Quality Biological, Gaithersburg, MD, cat. 114-055-101), at 800-fold the tested concentration and stored at -70 degrees C prior to their use. All drugs and investigational agents were tested over a range starting from a high concentration at or near the clinical Cmax and decreasing in half-log increments. If the clinical Cmax for an agent had not been determined, the highest concentration tested was 10 microM (Table 1).
Cell Culture. All cells were maintained in an incubator at 37 degrees C and 5% CO2 with 95% humidity. The PDC lines were cultured according to standard operating procedures established by the NCI PDMR (https://pdmr.cancer.gov). Briefly, all PDCs were thawed and cultured in Matrigel-coated flasks prepared with a working solution of 1X Ham's F-12 nutrient mix, without supplementation (Invitrogen, Waltham, MA, cat. 11765054), 100 U/mL penicillin-streptomycin (Invitrogen, cat. 15140122), and 2.5% Matrigel (Corning Inc., Corning, NY, cat. 354248) for the first three passages. All PDCs were cultured in complete DMEM/F-12 media containing advanced DMEM/F-12 (Invitrogen, cat. 12634028), 4.9% defined fetal bovine serum, heat inactivated (HyClone Laboratories Inc., Logan, UT, cat. SH30070.03HI), 389 ng/mL hydrocortisone (Sigma-Aldrich, cat. H4001), 9.7 ng/mL human EGF recombinant protein (Invitrogen, cat. PHG0313), 23.4 microg/mL adenine (Sigma-Aldrich, cat. A2786), 97.3 U/mL penicillin-streptomycin (Invitrogen, cat. 15140122), 1.9 mM L-glutamine (Invitrogen, cat. 25030081), and 9.7 microM Y-27632 dihydrochloride (Tocris Bioscience, Bristol, United Kingdom, cat. 1254). The PDCs were cultured in complete DMEM/F12 media without 10 microM Y-27632 dihydrochloride for at least two passages prior to the screen. The established cell lines NCI-H1341 and […] were cultured in DMEM/F-12, HEPES (Invitrogen, cat. 11330032), 5% defined fetal bovine serum (HyClone Laboratories Inc., cat. SH30070.03), ITS premix universal culture supplement [insulin (5 microg/mL), transferrin (5 microg/mL), and selenious acid (5 ng/mL)] […]
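For viability, T/C in this document: compound exposure lasted 7 days; 100% = DMSO vehicle control growth.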

Q: For `CCc1c2c(nc3ccc(O)cc13)-c1cc3c(c(=O)n1C2)COC(=O)[C@]3(O)CC` + CC(CO)NC(=O)c1cc(-c2ccc(Cl)cc2)nn(-c2cnn(C)c2)c1=O, which IC50 (second compound 0.1 µM) is on record?
A: 11.7 nM

Q: And the IC50 (second compound 0.316 µM)?
A: 16.4 nM

Q: And the IC50 (second compound 1 µM)?
A: 15.7 nM

Q: And the IC50 (second compound 3.16 µM)?
A: 11.5 nM

Q: What about the IC50 (second compound 10 µM) of the same compound?
A: 12.1 nM

Q: And the viability, T/C (second compound 0.1 µM, first compound 0.000949 µM)?
A: 77.2%

Q: And the viability, T/C (second compound 0.1 µM, first compound 0.003 µM)?
A: 73.5%

Q: What about the viability, T/C (second compound 0.1 µM, first compound 0.00949 µM) of the same compound?
A: 49.5%

Q: And the viability, T/C (second compound 0.1 µM, first compound 0.03 µM)?
A: 36.7%

Q: What about the viability, T/C (second compound 0.1 µM, first compound 0.0949 µM) of the same compound?
A: 19.2%

Q: What about the viability, T/C (second compound 0.1 µM, first compound 0.3 µM) of the same compound?
A: 11.6%

Q: What about the viability, T/C (second compound 0.316 µM, first compound 0.000949 µM) of the same compound?
A: 81.5%

Q: And the viability, T/C (second compound 0.316 µM, first compound 0.003 µM)?
A: 79.6%

Q: What about the viability, T/C (second compound 0.316 µM, first compound 0.00949 µM) of the same compound?
A: 60.7%

Q: And the viability, T/C (second compound 0.316 µM, first compound 0.03 µM)?
A: 36.9%

Q: And the viability, T/C (second compound 0.316 µM, first compound 0.0949 µM)?
A: 20.6%

Q: What about the viability, T/C (second compound 0.316 µM, first compound 0.3 µM) of the same compound?
A: 12.1%

Q: And the viability, T/C (second compound 1 µM, first compound 0.000949 µM)?
A: 77.3%

Q: What about the viability, T/C (second compound 1 µM, first compound 0.003 µM) of the same compound?
A: 74.2%

Q: And the viability, T/C (second compound 1 µM, first compound 0.00949 µM)?
A: 59.5%

Q: What about the viability, T/C (second compound 1 µM, first compound 0.03 µM) of the same compound?
A: 36.8%

Q: And the viability, T/C (second compound 1 µM, first compound 0.0949 µM)?
A: 21.4%

Q: What about the viability, T/C (second compound 1 µM, first compound 0.3 µM) of the same compound?
A: 11.3%

Q: What about the viability, T/C (second compound 3.16 µM, first compound 0.000949 µM) of the same compound?
A: 73.6%

Q: And the viability, T/C (second compound 3.16 µM, first compound 0.003 µM)?
A: 67%

Q: What about the viability, T/C (second compound 3.16 µM, first compound 0.00949 µM) of the same compound?
A: 52.6%

Q: And the viability, T/C (second compound 3.16 µM, first compound 0.03 µM)?
A: 34.9%

Q: And the viability, T/C (second compound 3.16 µM, first compound 0.0949 µM)?
A: 18%

Q: What about the viability, T/C (second compound 3.16 µM, first compound 0.3 µM) of the same compound?
A: 9.46%

Q: And the viability, T/C (second compound 10 µM, first compound 0.000949 µM)?
A: 80.2%

Q: And the viability, T/C (second compound 10 µM, first compound 0.003 µM)?
A: 69.9%

Q: And the viability, T/C (second compound 10 µM, first compound 0.00949 µM)?
A: 56.9%

Q: And the viability, T/C (second compound 10 µM, first compound 0.03 µM)?
A: 30%

Q: What about the viability, T/C (second compound 10 µM, first compound 0.0949 µM) of the same compound?
A: 18%

Q: What about the viability, T/C (second compound 10 µM, first compound 0.3 µM) of the same compound?
A: 8.73%

Q: How did the IC50 (second compound 0.1 µM) turn out when `O=C(c1cc(Cc2n[nH]c(=O)c3ccccc23)ccc1F)N1CCN(C(=O)C2CC2)CC1` + CC(CO)NC(=O)c1cc(-c2ccc(Cl)cc2)nn(-c2cnn(C)c2)c1=O was run?
A: > 10000 nM

Q: And the IC50 (second compound 0.316 µM)?
A: > 10000 nM

Q: What about the IC50 (second compound 1 µM) of the same compound?
A: > 10000 nM

Q: And the IC50 (second compound 3.16 µM)?
A: > 10000 nM

Q: And the IC50 (second compound 10 µM)?
A: > 10000 nM

Q: And the viability, T/C (second compound 0.1 µM, first compound 0.0316 µM)?
A: 93.7%

Q: And the viability, T/C (second compound 0.1 µM, first compound 0.1 µM)?
A: 94.6%

Q: What about the viability, T/C (second compound 0.1 µM, first compound 0.316 µM) of the same compound?
A: 93%

Q: And the viability, T/C (second compound 0.1 µM, first compound 1 µM)?
A: 85.1%

Q: And the viability, T/C (second compound 0.1 µM, first compound 3.16 µM)?
A: 83.7%

Q: What about the viability, T/C (second compound 0.1 µM, first compound 10 µM) of the same compound?
A: 82.4%

Q: And the viability, T/C (second compound 0.316 µM, first compound 0.0316 µM)?
A: 91.9%

Q: And the viability, T/C (second compound 0.316 µM, first compound 0.1 µM)?
A: 98%

Q: What about the viability, T/C (second compound 0.316 µM, first compound 0.316 µM) of the same compound?
A: 93%

Q: And the viability, T/C (second compound 0.316 µM, first compound 1 µM)?
A: 89.3%

Q: What about the viability, T/C (second compound 0.316 µM, first compound 3.16 µM) of the same compound?
A: 81.4%

Q: And the viability, T/C (second compound 0.316 µM, first compound 10 µM)?
A: 84.3%

Q: And the viability, T/C (second compound 1 µM, first compound 0.0316 µM)?
A: 93.9%

Q: What about the viability, T/C (second compound 1 µM, first compound 0.1 µM) of the same compound?
A: 108%

Q: What about the viability, T/C (second compound 1 µM, first compound 0.316 µM) of the same compound?
A: 95.2%

Q: And the viability, T/C (second compound 1 µM, first compound 1 µM)?
A: 95%

Q: What about the viability, T/C (second compound 1 µM, first compound 3.16 µM) of the same compound?
A: 90.1%

Q: And the viability, T/C (second compound 1 µM, first compound 10 µM)?
A: 73.2%

Q: What about the viability, T/C (second compound 3.16 µM, first compound 0.0316 µM) of the same compound?
A: 90.2%

Q: And the viability, T/C (second compound 3.16 µM, first compound 0.1 µM)?
A: 89.7%

Q: And the viability, T/C (second compound 3.16 µM, first compound 0.316 µM)?
A: 94.2%

Q: What about the viability, T/C (second compound 3.16 µM, first compound 1 µM) of the same compound?
A: 84%

Q: What about the viability, T/C (second compound 3.16 µM, first compound 3.16 µM) of the same compound?
A: 81.4%

Q: What about the viability, T/C (second compound 3.16 µM, first compound 10 µM) of the same compound?
A: 74.4%

Q: And the viability, T/C (second compound 10 µM, first compound 0.0316 µM)?
A: 106%

Q: And the viability, T/C (second compound 10 µM, first compound 0.1 µM)?
A: 105%

Q: And the viability, T/C (second compound 10 µM, first compound 0.316 µM)?
A: 85.2%

Q: And the viability, T/C (second compound 10 µM, first compound 1 µM)?
A: 99.5%

Q: What about the viability, T/C (second compound 10 µM, first compound 3.16 µM) of the same compound?
A: 79.1%

Q: And the viability, T/C (second compound 10 µM, first compound 10 µM)?
A: 77.6%

— PubChem BioAssay AID1918999 (Molecular Pharmacology Branch, DTP, NCI, 2023)
